pIC50: −log10 of the molar value.
What was measured:
[1] = target: estrogen receptor (Homo sapiens (Human), UniProt P03372); test: Western blot analysis of estrogen receptor downregulation; assay type: cell-based; conditions: 10 nM
Experimental: Whole-cell extracts of cultured cells were prepared in lysis buffer (200 mmol/L Tris, 1% Triton X-100, 5 mmol/L EDTA) with protease and phosphatase inhibitor cocktails (1:50, both from Sigma-Aldrich) after scraping from the culture plates. Protein concentration was measured using the Bradford method (Bio-Rad). Proteins were separated under denaturing conditions and blotted onto nitrocellulose membrane (Bio-Rad) using a wet transfer system (Bio-Rad). Images of blots were acquired on a Bio-Rad ChemiDoc System following incubation with SuperSignal West Dura luminol solution (Thermo Fisher Scientific).

[2] = system: MCF-7:WS8 cells; test: Cell viability of MCF7:WS8, DNA content assay; assay type: cell-based, human
[3] = target: ERα (Homo sapiens (Human), UniProt P03372); test: In-cell western (ICW) ER downregulation/degradation in MCF-7:WS8 cells; assay type: cell-based; conditions: Table 2; read-out: IC50 of ER downregulation from in-cell western blot experiments
Chain of ERα (P03372 whole entry): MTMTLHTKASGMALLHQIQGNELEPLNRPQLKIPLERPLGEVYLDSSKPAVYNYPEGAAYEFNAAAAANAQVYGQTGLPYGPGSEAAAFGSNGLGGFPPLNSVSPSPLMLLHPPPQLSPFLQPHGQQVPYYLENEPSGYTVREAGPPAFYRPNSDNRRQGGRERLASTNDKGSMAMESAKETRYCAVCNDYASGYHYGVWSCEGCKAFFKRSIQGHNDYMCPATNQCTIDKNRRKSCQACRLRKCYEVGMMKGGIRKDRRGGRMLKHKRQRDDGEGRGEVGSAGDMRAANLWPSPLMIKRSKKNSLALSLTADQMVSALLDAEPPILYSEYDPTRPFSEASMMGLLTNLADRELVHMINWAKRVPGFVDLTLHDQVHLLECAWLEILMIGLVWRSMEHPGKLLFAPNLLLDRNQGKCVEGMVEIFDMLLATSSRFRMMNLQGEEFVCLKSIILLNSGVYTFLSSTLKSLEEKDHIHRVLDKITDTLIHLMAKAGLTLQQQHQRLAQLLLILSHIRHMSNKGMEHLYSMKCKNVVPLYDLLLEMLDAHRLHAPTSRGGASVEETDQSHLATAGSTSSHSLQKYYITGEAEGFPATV

[4] = system: MCF-7:TAM1 tumors; test: MCF-7:TAM1 xenograft model of endocrine-resistant ER+ breast cancer; assay type: in vivo, mice; conditions: 100 mg/kg, oral gavage daily

Chain of estrogen receptor (P03372 whole entry): as above

Structure (SMILES)	Estrogen receptor downregulation (western blot) [1]	MCF-7WS8 IC50 [2]	other results
Cc1cc(F)ccc1C(=O)c1sc2cc(O)ccc2c1Oc1ccc(/C=C/C(=O)O)cc1 [Compound 1, (E)-3-(4-((2-(4-Fluoro-2-methylbenzoyl)-6-hydroxybenzo[b]thiophen-3-yl)oxy)phenyl)acrylic acid]	downregulate the estrogen receptor	–	–
O=C(O)/C=C/c1ccc(Oc2c(C(=O)c3ccc(O)cc3)sc3cc(O)ccc23)cc1 [Compound 2, (E)-3-(4-((6-Hydroxy-2-(4-hydroxybenzoyl)benzo[b]thiophen-3-yl)oxy)phenyl) acrylic acid]	–	No Inhiibition	–
CCc1ccccc1C(=O)c1sc2cc(O)ccc2c1Oc1ccc(/C=C/C(=O)O)cc1 [Compound 3, (E)-3-(4-((2-(2-Ethylbenzoyl)-6-hydroxybenzo[b]thiophen-3-yl)oxy)phenyl) acrylic acid]	downregulate the estrogen receptor	–	–
Cc1ccccc1C(=O)c1sc2cc(O)ccc2c1Oc1ccc(/C=C/C(=O)O)cc1 [Compound 5, (E)-3-(4-((6-Hydroxy-2-(2-methylbenzoyl)benzo[b]thiophen-3-yl)oxy)phenyl) acrylic acid]	downregulate the estrogen receptor	–	–
Cc1ccc(F)cc1C(=O)c1sc2cc(O)ccc2c1Oc1ccc(/C=C/C(=O)O)cc1 [Compound 6]	downregulate the estrogen receptor	–	–
Cc1ccsc1C(=O)c1sc2cc(O)ccc2c1Oc1ccc(/C=C/C(=O)O)cc1 [Compound 7, (E)-3-(4-((6-Hydroxy-2-(3-methylthiophene-2-carbonyl)benzo[b]thiophen-3-yl)oxy)phenyl) acrylic acid]	downregulate the estrogen receptor	–	pIC50 [3]: 8.34
Cc1cc(F)ccc1C(=O)c1sc2cc(O)ccc2c1Oc1ccc(NC(=O)C(=O)O)cc1 [Compound 18, 2-((4-((2-(4-Fluoro-2-methylbenzoyl)-6-hydroxybenzo[b]thiophen-3-yl)oxy)phenyl)amino)-2-oxoacetic acid]	–	No Inhibition	–
Cc1ccc(C(=O)c2sc3cc(O)ccc3c2Oc2ccc(NC(=O)C(=O)O)cc2)c(C)c1 [Compound 19, 2-((4-((2-(2,4-Dimethylbenzoyl)-6-hydroxybenzo[b]thiophen-3-yl)oxy)phenyl)amino)-2-oxoacetic acid]	–	No inhibition	–
CC/C(=C(\c1ccccc1)c1ccc(OCCN(C)C)cc1)c1ccccc1 [Tamoxifen, tamoxifen]	–	–	Effect on tumor [4]: entirely without effect
